{"source": "PubChem BioAssay AID2060883", "about": "(Molecular Pharmacology Branch, DTP, NCI, 2025);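 note: viability read after seven days of compound exposure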", "system": "843782-103-R-J1-PDC complex spheroid viability", "assay": "Anticancer human tumor 843782-103-R-J1-PDC patient-derived lung adenocarcinoma cell line growth inhibition [RAS]", "conditions": "for IC50: curve of first compound; for viability, T/C: stronger effect = lower value", "from_the_text": "RAS pathway inhibitors in Combinations in Complex Spheroids\nA high-throughput screen of multi-cell type tumor spheroids was designed to identify active combinations of RAS pathway inhibitors and targeted small molecules. Complex spheroids include a stromal component modeled by human endothelial cells (HUVEC) and fibroblasts modeled by human mesenchymal stem cells (MSCs). The concentration ranges selected for each drug and investigational agent were based upon clinically achievable concentrations if the clinical Cmax of the agent was known.\nCompounds. The drugs and investigational agents: abemaciclib (NSC768073), cobimetinib (NSC768068), divarasib (GDC6063, NSC841802), docetaxel (NSC628503), GDC-1971 (RLY-1971, NSC841576), gemcitabine (NSC613327), inavolisib (NSC800729), ipatasertib (NSC767898), KB-0742 (NSC834161), MRTX-1133 (NSC836407), osimertinib (NSC779217), RMC-4630 (NSC839698), RMC-6236 (NSC851965), RMC-6291 (NSC852671), Ro-3306 (NSC812927), sapanisertib (NSC764658), SN-38 (NSC673596), staurosporine (NSC755774), SY5609 (NSC837396), and tovorafenib (DAY101, NSC766906), were obtained from the National Cancer Institute (NCI) Developmental Therapeutics Program Chemical Repository. The FDA-approved anticancer drug set is available from the NCI Developmental Therapeutics Program. […] The stock solutions were prepared in dimethyl sulfoxide (DMSO, Sigma-Aldrich, St. Louis, MO, cat. D2650) at 800-fold the tested concentration and stored at -70 degrees C prior to their use. All drugs and investigational agents were tested over a range starting from a high concentration at or near the clinical Cmax and decreasing in half-log increments. If the clinical Cmax for an agent had not been determined, the highest concentration tested was 10 microM.\nCell Culture. All cells were maintained in an incubator at 37 degrees C and 5% CO2 with 95% humidity. The PDC lines were cultured according to standard operating procedures established by the NCI PDMR. All PDCs were thawed and cultured in Matrigel-coated flasks prepared with a working solution of 1X Ham's F-12 nutrient mix, without supplementation (Invitrogen, Waltham, MA, cat. 11765054), 100 U/mL penicillin-streptomycin (Invitrogen, cat. 15140122), and 2.5% Matrigel (Corning Inc., Corning, NY, cat. 354248) for the first three passages. The 362531-283-R-J2-PDC and 782815-120-R-J1-PDC lines were cultured in 6C/Colon 1B media, which includes advanced DMEM/F-12 (Thermo Fisher Scientific, cat. 12634028), 10 mM HEPES (Thermo Fisher Scientific, cat. 15630080), 1X GlutaMAX supplement (Thermo Fisher Scientific, cat. 35050061), 0.1 mg/mL primocin (InvivoGen, San Diego, CA, cat. ant-pm-2), 10% defined fetal bovine serum, heat inactivated (HyClone Laboratories Inc., Logan, UT, cat. SH30070.03HI), 50% L-WRN conditioned media (ATCC, cat. CRL-3276), 1.25 mM N-Acetyl-L-cysteine (Sigma-Aldrich, cat. A9165), 10 mM nicotinamide (Sigma-Aldrich, cat. N0636), 1X B-27 supplement (Thermo Fisher Scientific, cat. 17504044), 1X N-2 supplement (Thermo Fisher Scientific, cat. 17502048), 50 ng/mL human EGF (Thermo Fisher Scientific, cat. PHG0311), and 10 microM Y-27632 dihydrochloride (Tocris Bioscience, cat. 1254). The K12877-001-R-J1-PDC line was cultured in 6I media, which includes all 6C/Colon 1B media plus 10 ng/mL human FGF-10 (PeproTech, cat. 100-26), 1 ng/mL human FGF-2 (PeproTech, cat. 100-18B), 1 µM prostaglandin E2 (Tocris Bioscience, cat. 2296), […] hydrocortisone (Sigma-Aldrich, cat. H4001), and […] bovine insulin (Sigma-Aldrich, cat. I6634). The K86415-001-R-J1-PDC line was cultured in 6D media, which includes all 6C/Colon 1B media components minus the L-WRN conditioned media. The 485176-168-R4-J1-PDC was cultured in PANC media, which includes all 6C/Colon 1B media plus 100 ng/mL human FGF-10 (PeproTech, cat. 100-26), 500 nM SB-431542 (Selleckchem, cat. S1067), and 10 nM gastrin (Tocris Bioscience, cat. 3006). […]"}
{"smiles": "CC1(C)CCC(Nc2ncc(C(F)(F)F)c(-c3c[nH]c4c(P(C)(C)=O)c(C#N)ccc34)n2)CN1", "note": "(configuration not stated) + CCn1c(-c2cc(N3CCN(C)CC3)cnc2C(C)OC)c2c3cc(ccc31)-c1csc(n1)CC(NC(=O)C1CC1C)C(=O)N1CCCC(N1)C(=O)OCC(C)(C)C2", "values": [{"measurement": "IC50", "setting": "second compound 0.000949 µM", "value": 5.42, "unit": "nM"}, {"measurement": "IC50", "setting": "second compound 0.003 µM", "value": 2.24, "unit": "nM"}, {"measurement": "IC50", "setting": "second compound 0.00949 µM", "value": "< 0.949", "unit": "nM"}, {"measurement": "IC50", "setting": "second compound 0.03 µM", "value": "< 0.949", "unit": "nM"}, {"measurement": "IC50", "setting": "second compound 0.0949 µM", "value": "< 0.949", "unit": "nM"}, {"measurement": "IC50", "setting": "second compound 0.3 µM", "value": "< 0.949", "unit": "nM"}, {"measurement": "viability, T/C", "setting": "second compound 0.000949 µM, first compound 0.000949 µM", "value": 72.5, "unit": "%"}, {"measurement": "viability, T/C", "setting": "second compound 0.000949 µM, first compound 0.003 µM", "value": 68.5, "unit": "%"}, {"measurement": "viability, T/C", "setting": "second compound 0.000949 µM, first compound 0.00949 µM", "value": 32.6, "unit": "%"}, {"measurement": "viability, T/C", "setting": "second compound 0.000949 µM, first compound 0.03 µM", "value": 14.2, "unit": "%"}, {"measurement": "viability, T/C", "setting": "second compound 0.000949 µM, first compound 0.0949 µM", "value": 12, "unit": "%"}, {"measurement": "viability, T/C", "setting": "second compound 0.000949 µM, first compound 0.3 µM", "value": 11.8, "unit": "%"}, {"measurement": "viability, T/C", "setting": "second compound 0.003 µM, first compound 0.000949 µM", "value": 60.5, "unit": "%"}, {"measurement": "viability, T/C", "setting": "second compound 0.003 µM, first compound 0.003 µM", "value": 46.6, "unit": "%"}, {"measurement": "viability, T/C", "setting": "second compound 0.003 µM, first compound 0.00949 µM", "value": 22.8, "unit": "%"}, {"measurement": "viability, T/C", "setting": "second compound 0.003 µM, first compound 0.03 µM", "value": 14.1, "unit": "%"}, {"measurement": "viability, T/C", "setting": "second compound 0.003 µM, first compound 0.0949 µM", "value": 11.1, "unit": "%"}, {"measurement": "viability, T/C", "setting": "second compound 0.003 µM, first compound 0.3 µM", "value": 11, "unit": "%"}, {"measurement": "viability, T/C", "setting": "second compound 0.00949 µM, first compound 0.000949 µM", "value": 39.2, "unit": "%"}, {"measurement": "viability, T/C", "setting": "second compound 0.00949 µM, first compound 0.003 µM", "value": 29.3, "unit": "%"}, {"measurement": "viability, T/C", "setting": "second compound 0.00949 µM, first compound 0.00949 µM", "value": 18.7, "unit": "%"}, {"measurement": "viability, T/C", "setting": "second compound 0.00949 µM, first compound 0.03 µM", "value": 10.5, "unit": "%"}, {"measurement": "viability, T/C", "setting": "second compound 0.00949 µM, first compound 0.0949 µM", "value": 12.1, "unit": "%"}, {"measurement": "viability, T/C", "setting": "second compound 0.00949 µM, first compound 0.3 µM", "value": 10.9, "unit": "%"}, {"measurement": "viability, T/C", "setting": "second compound 0.03 µM, first compound 0.000949 µM", "value": 20.1, "unit": "%"}, {"measurement": "viability, T/C", "setting": "second compound 0.03 µM, first compound 0.003 µM", "value": 21.7, "unit": "%"}, {"measurement": "viability, T/C", "setting": "second compound 0.03 µM, first compound 0.00949 µM", "value": 14.5, "unit": "%"}, {"measurement": "viability, T/C", "setting": "second compound 0.03 µM, first compound 0.03 µM", "value": 12.2, "unit": "%"}, {"measurement": "viability, T/C", "setting": "second compound 0.03 µM, first compound 0.0949 µM", "value": 10.5, "unit": "%"}, {"measurement": "viability, T/C", "setting": "second compound 0.03 µM, first compound 0.3 µM", "value": 9.54, "unit": "%"}, {"measurement": "viability, T/C", "setting": "second compound 0.0949 µM, first compound 0.000949 µM", "value": 18.7, "unit": "%"}, {"measurement": "viability, T/C", "setting": "second compound 0.0949 µM, first compound 0.003 µM", "value": 18.2, "unit": "%"}, {"measurement": "viability, T/C", "setting": "second compound 0.0949 µM, first compound 0.00949 µM", "value": 14.1, "unit": "%"}, {"measurement": "viability, T/C", "setting": "second compound 0.0949 µM, first compound 0.03 µM", "value": 12.2, "unit": "%"}, {"measurement": "viability, T/C", "setting": "second compound 0.0949 µM, first compound 0.0949 µM", "value": 10.3, "unit": "%"}, {"measurement": "viability, T/C", "setting": "second compound 0.0949 µM, first compound 0.3 µM", "value": 10.3, "unit": "%"}, {"measurement": "viability, T/C", "setting": "second compound 0.3 µM, first compound 0.000949 µM", "value": 14.5, "unit": "%"}, {"measurement": "viability, T/C", "setting": "second compound 0.3 µM, first compound 0.003 µM", "value": 14.3, "unit": "%"}, {"measurement": "viability, T/C", "setting": "second compound 0.3 µM, first compound 0.00949 µM", "value": 11.9, "unit": "%"}, {"measurement": "viability, T/C", "setting": "second compound 0.3 µM, first compound 0.03 µM", "value": 11.7, "unit": "%"}, {"measurement": "viability, T/C", "setting": "second compound 0.3 µM, first compound 0.0949 µM", "value": 11.5, "unit": "%"}, {"measurement": "viability, T/C", "setting": "second compound 0.3 µM, first compound 0.3 µM", "value": 10.1, "unit": "%"}]}
